We go through 15 molecules from patent US11827628B2, “Compositions and methods for inhibition of the JAK pathway” (Rigel Pharmaceuticals, Inc., priority 2005, dated 2023).

One test has as its system Primary human T-cells. Kind of test: Primary Human T-Cell Proliferation Assay Stimulated with IL-2 (CellTiter-Glo). The class given is cell-based. The settings on record: Homo sapiens, T-cell, primary human T-cells stimulated with IL-2, proliferation; read-out: IC50, Example 42. In outline:
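IC50 derived from CellTiter-Glo ATP signal after 72 hours of IL-2-driven proliferation at 37° C. Cells: primary human T-cells from blood, stimulated beforehand 3-4 days on anti-CD3/anti-CD28 with IL-2, then rested from IL-2 before compound exposure in duplicate; IL-2-free wells served as unstimulated control.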

In test [1] the test system is IL-4 stimulated expression of CD23 in human Ramos B cells (JAK-1 and JAK-3). Kind of test: Assay for Ramos B-Cell Line Stimulated with IL-4 (CD23 upregulation, FACS). The format is cell-based. The settings on record: Homo sapiens, Ramos, Ramos B cells stimulated with IL-4, CD23 expression by FACS; read-out: IC50, Example 41. In a few lines: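 Read-out is surface CD23 by FACS after anti-CD23-PE staining, giving IC50. Before this, cells were stimulated 20-24 h with 50 units/mL (final) human IL-4, following 1 h compound or vehicle pre-treatment at 37 °C; log-phase Ramos B cells, 5×10^4 per well in 5% serum RPMI.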

For the molecule `Cc1cnc(Nc2ccc(S(N)(=O)=O)cc2)nc1Nc1ccc2c(c1)NC(=O)CO2` [VII-31, N2-(4-Aminosulphonylphenyl)-5-methyl-N4-(3-oxo-benz[1,4]oxazin-6-yl)-2,4-pyrimidinediamine], the IC50 with Primary human T-cells was 174 nM; in test [1], 125 nM.

For the molecule `Cc1cnc(Nc2cccc(S(N)(=O)=O)c2)nc1Nc1ccc2c(c1)NC(=O)CO2` [VII-32, N2-(3-Aminosulphonylphenyl)-5-methyl-N4-(3-oxo-benz[1,4]oxazin-6-yl)-2,4-pyrimidinediamine], the half-inhibitory concentration (IC50) in the test on Primary human T-cells was determined as 32.1 nM; in test [1], 107 nM.

As for `Cc1cnc(Nc2cccc(S(N)(=O)=O)c2)nc1Nc1ccc2c(c1)N(C)C(=O)CS2` [VII-35, N2-(3-Aminosulphonylphenyl)-5-methyl-N4-(4-methyl-3-oxo-benzo[1,4]thiazin-6-yl)-2,4-pyrimidinediamine], the half-inhibitory concentration (IC50) in the test on Primary human T-cells amounted to 46.1 nM; in test [1], 44.8 nM.

As to `Cc1ccc(Nc2ncc(F)c(Nc3ccc4c(c3)NC(=O)CS4)n2)cc1S(N)(=O)=O` [VII-44, N2-(3-Aminosulphonyl-4-methyl-phenyl)-5-fluoro-N4-(3-oxo-4H-benzo[1,4]thiazin-6-yl)-2,4-pyrimidinediamine], the results for the concentration for half-maximal inhibition (IC50) (in the test on Primary human T-cells; in test [1]) were 546 nM and 33 nM, respectively.

In the case of `CN1C(=O)CSc2ccc(Nc3nc(Nc4ccc(S(N)(=O)=O)cc4)ncc3F)cc21` [VII-48, N2-(4-Aminosulfonylphenyl)-5-fluoro-N4-(4-methyl-3-oxo-benz[1,4]thiazin-6-yl)-2,4-pyrimidinediamine], the figures for the half-inhibitory concentration (IC50) (with Primary human T-cells; in test [1]) were 336 nM and 30.8 nM, respectively.

As for `CN1C(=O)CSc2ccc(Nc3nc(Nc4cccc(S(N)(=O)=O)c4)ncc3F)cc21` [VII-49, N2-(3-Aminosulfonylphenyl)-5-fluoro-N4-(4-methyl-3-oxo-benz[1,4]thiazin-6-yl)-2,4-pyrimidinediamine], the half-maximal inhibitory concentration (IC50) amounted to 54.9 nM in the test with Primary human T-cells and 37.8 nM in test [1].

Turning to `Cc1ccc(Nc2ncc(F)c(Nc3ccc4oc(C#N)cc4c3)n2)cc1S(N)(=O)=O` [VII-53, N2-(3-Aminosulfonyl-4-methylphenyl)-N4-(2-cyanobenzofuran-5-yl)-5-fluoro-2,4-pyrimidinediamine], the IC50 stood at 484 nM in the test on Primary human T-cells and 168 nM in test [1].

With `NC(=O)c1cc2cc(Nc3nc(Nc4cccc(S(N)(=O)=O)c4)ncc3F)ccc2o1` [VII-54, N2-(3-Aminosulfonylphenyl)-N4-(2-aminocarbonylbenzofurane-5-yl)-5-fluoro-2,4-pyrimidinediamine], the concentration for half-maximal inhibition (IC50) in the test with Primary human T-cells was found to be 596 nM; in test [1], 295 nM.

With `Cc1ccc(Nc2ncc(F)c(Nc3ccc4sccc4c3)n2)cc1S(N)(=O)=O` [VII-57, N2-(3-Aminosulfonyl-4-methylphenyl)-N4-(benzothiophen-5-yl)-5-fluoro-2,4-pyrimidinediamine], the IC50 in the test on Primary human T-cells was 818 nM; in test [1], 107 nM.

Take `NS(=O)(=O)c1cccc(Nc2ncc(F)c(Nc3ccc4sccc4c3)n2)c1` [VII-58, N2-(3-Aminosulfonylphenyl)-N4-(benzothiophen-5-yl)-5-fluoro-2,4-pyrimidinediamine]: the figures for the concentration for half-maximal inhibition (IC50) (in the test with Primary human T-cells; in test [1]) were 265 nM and 136 nM, respectively.

Consider `Cc1ccc(Nc2ncc(F)c(Nc3ccc4ncccc4c3)n2)cc1S(N)(=O)=O` [VII-69, N2-(3-Aminosulfonyl-4-methylphenyl)-5-fluoro-N4-(quinolin-6-yl)-2,4-pyrimidinediamine], for which the results for the IC50 (in the test on Primary human T-cells; in test [1]) were 696 nM and 76.7 nM, respectively.

As for `NS(=O)(=O)c1cccc(Nc2ncc(F)c(Nc3ccc4ncccc4c3)n2)c1` [VII-70, N2-(3-Aminosulfonylphenyl)-5-fluoro-N4-(quinolin-6-yl)-2,4-pyrimidinediamine], the IC50 in the test on Primary human T-cells was found to be 375 nM; in test [1], 65.4 nM.

`Cc1ccc2cc(Nc3nc(Nc4ccc(C)c(S(N)(=O)=O)c4)ncc3F)ccc2n1` [VII-71, N2-(3-Aminosulfonyl-4-methylphenyl)-5-fluoro-N4-(2-methylquinolin-6-yl)-2,4-pyrimidinediamine]: the half-maximal inhibitory concentration (IC50) with Primary human T-cells is 569 nM; in test [1], 149 nM.

With `Cc1ccc2cc(Nc3nc(Nc4cccc(S(N)(=O)=O)c4)ncc3F)ccc2n1` [VII-72, N2-(3-Aminosulfonylphenyl)-5-fluoro-N4-(2-methylquinolin-6-yl)-2,4-pyrimidinediamine], the IC50 amounted to 415 nM with Primary human T-cells and 84.8 nM in test [1].

As for `Cc1ccc(Nc2ncc(F)c(Nc3cccc4cccnc34)n2)cc1S(N)(=O)=O` [VII-77, N2-(3-Aminosulfonyl-4-methylphenyl)-5-fluoro-N4-(quinolin-8-yl)-2,4-pyrimidinediamine], the figures for the IC50 (with Primary human T-cells; in test [1]) were 1780 nM and 124 nM, respectively.
